Consider 80 compounds from the METLIN SMRT retention time set (Domingo-Almenara et al. 2019).

Structures are written as SMILES.

This data set in a line: gradient 5% acetonitrile 3 min, to 50% in 2 min, to 85% in 15 min, held 3 min, 100 µL/min. The following applies: column: Zorbax Extend-C18 2.1 x 50 mm; eluents: water / acetonitrile, 0.1% formic acid. In outline:
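The mobile phases were water and acetonitrile, each with 0.1% formic acid, pumped at 100 μL/min through a Zorbax Extend-C18 column (2.1 × 50 mm, 1.8 μm). Pure standards were injected as mixtures of ~100 molecules and detected by a quadrupole time-of-flight mass spectrometer in positive and negative ionization mode. Retention time came from computationally picked adduct peaks, each inspected by hand.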
The compound `CCOc1ccc(-c2noc(CN3C(=O)COc4cc(C)ccc43)n2)cc1` returned an RP-LC retention time of 1110 s.

`C=C1CC2(OC1=O)c1ccccc1CCc1ccccc12` returned an RP-LC retention time of 1140 s.

Take `CC(C)CC(=O)Nc1ccc(-c2nc(-c3ccccc3)co2)cc1`: the RP-LC retention time came out at 1100 s.

Compound `CC(C)Cn1c(=O)c2nscc2n(CC(=O)NC2CCCC2)c1=O` came in with an RP-LC retention time of 731 s.

With `CCCC(=O)Nc1cnc(N2CCNCC2)c(C(=O)N(CC(C)C)CC(C)C)c1`, the RP-LC retention time amounted to 652 s.

`Cn1c(C(=O)N2CCN(c3cccc(Cl)c3)CC2)cc2c(=O)oc3ccccc3c21` had an RP-LC retention time of 1030 s.

`COC(=O)c1ncn2c1C(=O)N(c1ccc(C)cc1C)C(C)(C(=O)NC1CCCC1)C2` (stereo not given) displayed an RP-LC retention time of 753 s.

Turning to `Cc1nc(-c2csc(S(=O)(=O)N3CCC(C(=O)NCCC(C)C)CC3)c2)no1`, the RP-LC retention time worked out at 868 s.

`O=C(c1ccoc1)N1CCCC1c1nc(-c2ccc(F)cc2F)no1` (stereo not given) gave an RP-LC retention time of 869 s.

In the case of `CCC(CC)NC(=O)C1Cn2cccc2C(=O)N1CC(C)C` (stereo not given), the RP-LC retention time was 756 s.

`COc1ccc(Br)cc1Cn1nnc(C(=O)NCc2cccs2)c1N` gave an RP-LC retention time of 825 s.

Regarding `CCC1CN2C=NC(N3CCN(C(=O)Nc4ccc(OC)cc4)CC3)=CC2=N1` (stereo not given), the RP-LC retention time turned out to be 600 s.

`O=C(Nc1ccccc1Cl)N1CCN(c2cc(-c3ccncc3)[nH]n2)CC1` yielded an RP-LC retention time of 600 s.

The compound `CCc1ccccc1NC(=O)Cn1c(=O)c(CCC(=O)NCC(C)C)nc2ccccc21` gave an RP-LC retention time of 854 s.

Turning to `O=C(Nc1cccc(OCc2nnc(-c3ccccc3)o2)c1)c1cnccn1`, the RP-LC retention time came to 825 s.

`O=C(Nc1ccc2nc3n(c(=O)c2c1)CCCC3)c1cc2ccccc2[nH]1` yielded an RP-LC retention time of 720 s.

As for `COc1ccc(OC)c(CNC(=O)Cc2nnc(-c3cccc(Br)c3)o2)c1`, the RP-LC retention time turned out to be 796 s.

In turn, `Cc1c(-c2ccnc(N3CCN(C)CC3)n2)cnc2nc(-c3cccs3)nn12` returned an RP-LC retention time of 601 s.

The compound `CC(C)CCNC(=O)CN1c2ccc(F)cc2-c2ccccc2S1(=O)=O` gave an RP-LC retention time of 963 s.

In the case of `CCN1C(=O)CCc2cc(NC(=O)CCc3ccccc3OC)ccc21`, the RP-LC retention time came out at 787 s.

`CCCNC(=O)C1CCCN(c2nc3ncn(CC(=O)Nc4ccccc4Cl)c(=O)c3s2)C1` (stereo not given) had an RP-LC retention time of 738 s.

Regarding `CCOCCCNC(=O)c1nnc(-c2ccc(S(=O)(=O)N3CCCCC3)cc2)o1`, the RP-LC retention time stood at 762 s.

Compound `COc1ccccc1NC(=O)CN1CCN(Cc2ccc(C)cc2)C(=O)C1=O` came in with an RP-LC retention time of 771 s.

`O=C(NCc1nc(-c2ccc(N3CCCCC3)cc2)no1)c1cccs1` showed an RP-LC retention time of 877 s.

Compound `Cc1cc(C(=O)Nc2c3c(nn2-c2ccccc2)CCC3)nn1C` returned an RP-LC retention time of 733 s.

As to `COCCC(=O)N1CCN(c2nc(CN3CCOCC3)cs2)CC1`, the RP-LC retention time came out at 686 s.

For `O=C(NCc1ccc2c(c1)OCO2)C1CCCN(C(=O)c2cc(-c3ccncc3)n[nH]2)C1` (stereo not given), the RP-LC retention time is 599 s.

With `CCc1ccccc1NC(=O)c1cc(C(C)C)n2nccc2n1`, the RP-LC retention time came out at 1240 s.

In the case of `CCOC(=O)c1cnc(NC(=O)c2ccc(S(=O)(=O)N3CCCCC3)cc2)s1`, the RP-LC retention time stood at 882 s.

In turn, `CCN1CCN(C(=O)C2CCN(S(=O)(=O)c3ccc4c(c3)sc(=O)n4CC)CC2)CC1` had an RP-LC retention time of 602 s.

With `COc1cccc(OC)c1C(=O)N1CCCC1c1cc(C)on1` (stereo not given), the RP-LC retention time came out at 679 s.

The compound `CCOC(=O)c1ccc(NC(=O)COc2ccc(-c3nnc4n3CCCC4)cc2)cc1` had an RP-LC retention time of 730 s.

`CCOC(=O)c1sc(NC(=O)c2cc(=O)c3ccccc3o2)nc1-c1ccccc1`: the RP-LC retention time worked out at 1010 s.

The compound `Cc1ccc(Nc2c(-c3ccc(Cl)cc3)nc3ncccn23)cc1Cl` had an RP-LC retention time of 1020 s.

In turn, `CC1CCN(c2ncc3c(n2)CCC(C(=O)NCCN2CCc4ccccc4C2)C3)CC1` (stereo not given) returned an RP-LC retention time of 654 s.

With `COc1ccc(-c2noc(CN3CCN(c4ccc(OC)cc4)CC3)n2)cc1`, the RP-LC retention time amounted to 809 s.

`Cc1cc(=O)n2c3c(c4c(cc13)c(CN(C)C)cc(=O)n4C)OC2`: the RP-LC retention time was determined as 601 s.

`CC(=O)NCC(=O)N1CCCn2cc(-c3ccccc3F)nc21` returned an RP-LC retention time of 580 s.

`O=C(Cn1cccc1-c1nc(-c2ccc(Cl)cc2)cs1)N1CCCC1` showed an RP-LC retention time of 1130 s.

Compound `O=S(=O)(c1cccc(-c2nc(-c3ccccc3)no2)c1)N1CCN(C2CCCCC2)CC1` returned an RP-LC retention time of 840 s.

In the case of `COC[C@@H]1CN(S(=O)(=O)c2cccc(F)c2)C[C@H]1c1ccccn1`, the RP-LC retention time was 639 s.

With `COCCn1ncc(N2CCC(C(=O)N(C)CC(=O)Nc3ccc(F)cc3)C2)cc1=O` (stereo not given), the RP-LC retention time amounted to 650 s.

The compound `CC(C)N1C(=O)Cc2ccccc2C1C(=O)NCc1ccc(F)cc1` (stereo not given) returned an RP-LC retention time of 796 s.

`O[C@@H](c1cc(C(F)(F)F)nc2c(C(F)(F)F)cccc12)[C@@H]1CCCCN1` gave an RP-LC retention time of 829 s.

In turn, `CCc1ccc(C(=O)N2CCCC(COc3ccc(C(=O)NC(C)C)cc3)C2)cc1` (stereo not given) returned an RP-LC retention time of 944 s.

Compound `CCN(CC)S(=O)(=O)c1cc(-c2nnc(-c3ccc(OC)cc3)o2)ccc1Cl` showed an RP-LC retention time of 1140 s.

In the case of `CCn1cc(-c2ccc(F)cc2)cc1C(=O)N1CCCC1`, the RP-LC retention time worked out at 959 s.

In the case of `CC(C)NC(=O)N(C1CC1)C1CCOC2(CCN(C(=O)C3CC3)CC2)C1` (stereo not given), the RP-LC retention time worked out at 688 s.

On to `CCOc1ccc(S(=O)(=O)N2CCC(c3noc(-c4cccc(F)c4)n3)CC2)cc1`, for which the RP-LC retention time is 1190 s.

As for `Cc1cc(CNC(=O)NC(C)(C)C)on1`, the RP-LC retention time came to 636 s.

Compound `CCn1cc(-c2nc(C(=O)Nc3ccc(F)cc3F)cs2)c2cccnc21` yielded an RP-LC retention time of 1220 s.

`Cc1ccc(N2CCN(CC(O)COc3ccc([N+](=O)[O-])cc3)CC2)cc1` (stereo not given) gave an RP-LC retention time of 601 s.

In turn, `COc1ccc(OCc2ccc(C(=O)Nc3cc4c(cc3C(C)=O)OCO4)o2)cc1` had an RP-LC retention time of 1060 s.

Take `Oc1ccc(-c2nc3ccccn3c2Nc2ccc3c(c2)OCCO3)cc1`: the RP-LC retention time was 596 s.

`CSc1cccc(NC(=O)N2CCC(c3nc(C(=O)N4CCCCC4)c(C)o3)CC2)c1` showed an RP-LC retention time of 828 s.

`O=C(CCn1nnc2cc(-c3noc(Cc4ccc(Cl)cc4)n3)ccc21)N1CCOCC1` showed an RP-LC retention time of 878 s.

For the compound `COc1ccc(-c2nnc(Cc3nc(-c4ccccc4C)no3)o2)cc1OC`, the RP-LC retention time stood at 957 s.

As for `COc1ccc(CCc2nc3nccc(-c4cc(OC)c(OC)c(OC)c4)n3n2)cc1`, the RP-LC retention time came to 895 s.

Consider `CCOc1ccc(NC(=O)c2oc3cc(C)c(Cl)cc3c2C)c2cccnc12`, for which the RP-LC retention time was found to be 893 s.

Compound `CCOC(=O)c1c(C)[nH]c(CCC(=O)NCCN2CCOCC2)c1C` registered an RP-LC retention time of 597 s.

With `CC1(C)C(=O)Nc2ccc(S(=O)(=O)N3CCC(c4noc(C5CC5)n4)C3)cc21` (stereo not given), the RP-LC retention time turned out to be 747 s.

Take `Cc1noc(C)c1CNC(=O)c1ccc(F)cc1Cl`: the RP-LC retention time came out at 731 s.

As for `O=c1ccn(-c2ccccc2)nc1-c1nc(-c2ccc3c(c2)OCO3)no1`, the RP-LC retention time amounted to 835 s.

In turn, `CC(C)CC(=O)Nc1ccc(N2CCCC(C)C2)cc1C(=O)O` (stereo not given) displayed an RP-LC retention time of 671 s.

In turn, `O=C1COc2cc(S(=O)(=O)N3CCC(C(=O)NC4CCCCC4)CC3)c(Cl)cc2N1` displayed an RP-LC retention time of 772 s.

As to `COc1ccc(-c2noc(Cn3ccn(-c4ccccc4)c(=O)c3=O)n2)cc1`, the RP-LC retention time was determined as 794 s.

Compound `CC(C)(C)NC(=O)NC1CCN(c2ccccc2)C1=O` (stereo not given) showed an RP-LC retention time of 722 s.

As to `Cc1ccccc1C(=O)N1CCC2(C1)C(=O)N(C)c1ccccc12` (stereo not given), the RP-LC retention time came out at 767 s.

Regarding `Cc1ccc(CCNC(=O)c2cc3sccc3n2Cc2ccc(Cl)cc2)cc1`, the RP-LC retention time stood at 1270 s.

Consider `COc1ccc(C2c3c(n(C)c4ccccc34)C(=O)N2CC(=O)N2CCN(c3ccccn3)CC2)cc1` (stereo not given), for which the RP-LC retention time turned out to be 710 s.

`CC(C)CN(CC1CN(C(=O)COc2ccccc2)CCO1)C(=O)c1ccccc1` (stereo not given) yielded an RP-LC retention time of 851 s.

`O=C(c1ccc(F)c(Cl)c1)N1CCN(C(=O)c2nnn3c2COC(c2ccccc2)C3)CC1` (stereo not given) displayed an RP-LC retention time of 913 s.

For the compound `Cc1ccccc1C(=O)N1C(C(=O)NCC(C)C)COC12CCN(C(=O)C(C)(C)C)CC2` (stereo not given), the RP-LC retention time came to 782 s.

`Clc1ccccc1Cc1nc(-c2ccc(OC3CCNC3)cc2)no1` (stereo not given) showed an RP-LC retention time of 704 s.

`O=C(c1cccc(-c2nccnc2N2CCCC2)c1)N1CCN(c2ccccc2)CC1` showed an RP-LC retention time of 972 s.

`O=C(Cc1ccccc1Cl)N1CCC2(C1)C(=O)Nc1ccccc12` (stereo not given): the RP-LC retention time came to 758 s.

The compound `CCCCCn1c(=O)c2ccccc2n(Cc2nc(-c3ccc(Cl)cc3)no2)c1=O` came in with an RP-LC retention time of 1340 s.

In the case of `CCc1ccc(CNC(=O)C2CCCN(c3ccc(=O)n(-c4ccc(F)cc4)n3)C2)cc1` (stereo not given), the RP-LC retention time came out at 910 s.

For `O=C(N[C@H]1C[C@@H]2C[C@H]1CN2C(=O)NCc1ccco1)c1ccccc1`, the RP-LC retention time came to 652 s.

`COc1ccc(NC(=O)Cn2c(N)nc(C)cc2=O)cc1F` registered an RP-LC retention time of 593 s.
